Literature values as cited in US7173016B2, “Composition and method for treating graft-versus-host disease” (Mayne Pharma (USA) Inc., priority 2001, dated 2007).

Conditions: acid-catalyzed glycosidic cleavage

acid stability: highly acid-labile
SMILES: OC[C@H]1O[C@@H](n2cnc3c2NC=NC[C@H]3O)C[C@@H]1O [pentostatin, 2′-deoxycoformycin]
